A word on the IC50: it is the point on the concentration scale where inhibition reaches its midpoint. As usually defined, the EC50 is the concentration at which the effect is half-maximal. In general, EC90 refers to the point of the concentration-response curve where the effect stands at 90%. Read a high EC90 as weaker potency. In general, CC50 refers to the concentration giving 50% cytotoxicity. Low readings indicate harm at low concentration, high ones better tolerance by the cells. The term AUC(0-inf) denotes the area under the concentration-time curve extrapolated to infinity. Low readings indicate less exposure, high ones more exposure. The term Vdss denotes a proportionality between amount in the body and measured concentration, not a real space. The low end stands for little distribution into tissue, the high end for wide distribution into tissue. As usually defined, the AUC(0-t) is exposure summed from dosing to a finite time, without extrapolation to infinity. Read a low AUC(0-t) as low exposure. For orientation: clearance means the volume of plasma or blood freed of the substance per unit of time. As a reminder, the half-life is the time in which the quantity being followed falls by half. Higher therefore signals slow decline. A word on the Vd: it is the apparent volume that relates the amount in the body to the concentration in plasma or blood. A low value points to confinement near the circulation. As usually defined, the Tmax is the time at which the peak concentration occurs.

The text below walks through data of patent publication EP4603497A1, “CRYSTAL FORM OF CYANO-SUBSTITUTED POLYPEPTIDE COMPOUND AND PREPARATION METHOD THEREFOR” (Fujian Akeylink Biotechnology Co., Ltd., priority 2022, dated 2024).

For one data set, the target named is T1, SARS-CoV-2 Mpro (Severe acute respiratory syndrome coronavirus 2, UniProt P0DTD1).
T1 construct: SARS-CoV-2 Mpro; purchased WuXi AppTec
In words: in vitro anti-SARS-CoV-2 Mpro protease activity (fluorescent substrate assay). Conditions: 25 nM Mpro protein, 25 µM substrate. Format: biochemical. As to the method:
The compound was dissolved in DMSO, diluted in a 3-fold gradient using Echo655 according to the required test concentration, with 10 concentration points. Each concentration was duplicated and added to a 384-well plate. The Mpro protein and substrate were diluted with a test buffer (100 mM NaCl, 20 mM Tris-HCl, 1 mM EDTA), and the Mpro protein was added to the 384-well test plate, incubated with the compound at room temperature for 30 min, then the substrate was added. The test concentration of the Mpro protein was 25 nM and the test concentration of the substrate was 25 µM. The mixture was incubated in a constant temperature incubator at 30°C for 60 minutes. Then, the fluorescence signal value at Ex/Em = 340 nm/490 nm was detected using a microplate reader. At the same time, the background well containing substrate and compound but not containing Mpro protein was detected as a control. […]

The subject of another data set is coronavirus HCoV OC43. In words: in vitro anti-coronavirus activity, cytopathic model (CPE, CellTiter Glo). Type of data set: cell-based. Conditions: Betacoronavirus 1, 120 h; MRC5 cells, HCoV OC43 100TCID50/well, 5 days. The procedure:
MRC5 cells and coronavirus HCoV OC43 were purchased from ATCC.
MRC5 cells were cultured in MEM (Sigma) culture medium supplemented with 10% fetal bovine serum (Excell), 1% dual antibody (Hyclone), 1% L-glutamine (Gibco), and 1% non-essential amino acids (Gibco). MEM (Sigma) culture medium supplemented with 5% fetal bovine serum (Excell), 1% dual antibody (Hyclone), 1% L-glutamine (Gibco), and 1% non-essential amino acids (Gibco) was used as the experimental culture medium.
Cells were seeded at a certain density (Table 12) into a 96-well plate and incubated overnight in a 5% CO2, 37°C incubator. The next day, the diluted compound (8 concentration points, double replicate wells) was added thereto, 50 µL per well. Then the diluted virus was added to each well at 100 TCID50, 50 µL per well. Cell controls (cells, no compound treatment or virus infection), virus controls (cells infected with virus, no compound treatment), and culture medium controls (only culture medium) were set up. […] Cell viability was detected using the CellTiter Glo (Promega) cell viability assay kit. […]
(§1) The inhibition rate and cell viability of the compound were analyzed using GraphPad Prism for non-linear fitting, and the half-maximal effective concentration (EC50) and half-maximal cytotoxic concentration (CC50) values of the compound were calculated. […]

A short description of data set [1]: cytotoxicity experiment (same conditions, without virus infection). Type of data set: cell-based. As to conditions: human; MRC5 cells, 5 days, no virus. The procedure:
Cells were seeded at a certain density (Table 12) into a 96-well plate and incubated overnight in a 5% CO2, 37°C incubator. The next day, the diluted compound (8 concentration points, double replicate wells) was added thereto, 50 µL per well. Then the diluted virus was added to each well at 100 TCID50, 50 µL per well. Cell controls (cells, no compound treatment or virus infection), virus controls (cells infected with virus, no compound treatment), and culture medium controls (only culture medium) were set up. The final volume of the experimental culture medium was 200 µL, with a final DMSO concentration of 0.5% in the culture medium. The cells were incubated for 5 days in a 5% CO2, 33°C incubator. Cell viability was detected using the CellTiter Glo (Promega) cell viability assay kit. The conditions for the cytotoxicity experiment were the same as for the antiviral experiment, but without virus infection.
The antiviral activity and cytotoxicity of the compound were represented by the inhibition rate (%) and the cell viability (%) of the cytopathic effect caused by the virus at different concentrations of the compound, respectively. […]
as §1

Another data set concerns coronavirus OC43 strain. In words: in vivo antiviral efficacy, suckling mouse infection model. Conditions: once a day for 7 consecutive days, first dose 2 hours before inoculation.
A short description of the next data set: in vivo. Also noted: species or system SD rats. Conditions: rat; for AUC(0-t): AUC0-last; for half-life: T1/2. The procedure:
In this study, male and female SD rats were selected as test animals.
Animals were grouped according to 3 per group/gender. […] The plasma drug concentration was determined using LC-MS/MS method. Table 14: Pharmacokinetic parameters in rats

Data set [2] can be described thus: hygroscopicity by dynamic vapor sorption (DVS). Type of data set: physicochemical. As to the method: • Instrument model: SMS DVS Advantage dynamic vapor sorption analyzer • Test conditions: A sample (10 to 30 mg) is taken and placed in a DVS sample tray for testing. • The detailed parameters for DVS are as follows: • Temperature: 25°C • Equilibrium: dm/dt = 0.002%/min (minimum: 10 minutes, maximum: 180 minutes) • RH (%) range: 70%RH-95%RH-0%RH-95%RH • RH (%) gradient: 10% (90%RH-0%RH-90%RH), 5% (95%RH-90%RH and 90%RH-95%RH).

Data set [3] is described as follows: stability of the crystal form under different conditions (XRPD confirmation). Format: physicochemical. An excerpt:
Table 6: Stability test under different conditions

From the text for coronavirus OC43 strain: Experimental example 4: Evaluation of the in vivo antiviral efficacy of the test compound using a suckling mouse infection model with the coronavirus OC43 strain

Compound `CC(C)(C)[C@H](NC(=O)C(F)(F)F)C(=O)N1[C@H]2C[C@@H]([C@H]1C(=O)N[C@H](C#N)C[C@@H]1CCNC1=O)C1(CC1)C2` [Compound 1] came in with a 50% inhibitory concentration (IC50) at SARS-CoV-2 Mpro of 1.8 nM. In the data set on coronavirus HCoV OC43, the EC50 is 5.1 nM and the 90% effect level (EC90) was put at 7.9 nM. This compound returned a CC50 at 120 h in data set [1] greater than 10000 nM. In the data set on coronavirus OC43 strain (12.5 mg/kg), the Median survival time was greater than 14 days and the Survival rate is 87.5%. Also, in the data set with coronavirus OC43 strain (25 mg/kg), the Median survival time is greater than 14 days and the Survival rate stood at 100%. Also, in the data set on coronavirus OC43 strain (50 mg/kg), the Median survival time is listed as greater than 14 days and the Survival rate amounted to 100%.
For `CC(C)(C)[C@H](NC(=O)C(F)(F)F)C(=O)N1[C@H]2C[C@@H]([C@H]1C(=O)N[C@H](C#N)C[C@@H]1CCNC1=O)C1(CC1)C2` [Crystal form A], in the data set “in vivo” (iv, 2 mg/kg), the AUC0-last stood at 778 ng·h/mL, the AUC(0-inf) stood at 785 ng·h/mL, the Cl is listed as 42.5 mL/min/kg and the T1/2 came out at 18.2 min. In addition, in the data set “in vivo” (iv, 2 mg/kg), the Vdss worked out at 1.04 L/kg, the AUC(0-t) turned out to be 792 ng·h/mL and the half-life was 19.8 min. The compound also registered an AUC(0-inf) in the data set “in vivo” (iv, 2 mg/kg, AUC0-inf) of 804 ng·h/mL. This compound also returned a clearance in the data set “in vivo” (iv, 2 mg/kg, Cl) of 42.4 mL/min/kg. The Vd in “in vivo” (iv, 2 mg/kg, Vdss) was 1.11 L/kg. Also, in the data set “in vivo” (po, 30 mg/kg), the AUC0-last worked out at 9910 ng·h/mL, the Tmax was found to be 30 min, the AUC(0-t) turned out to be 5960 ng·h/mL and the half-life was 49.6 min. This compound also came in with an AUC(0-inf) in “in vivo” (po, 30 mg/kg, AUC0-inf) of 5980 ng·h/mL. Further, in the data set “in vivo” (po, 30 mg/kg, Tmax), the Tmax is 55 min. In data set [2] (25°C and 80% RH), the hygroscopic weight gain is reported as 0.114% and the hygroscopicity result is reported as “no or almost no hygroscopicity”. In addition, the ΔW in data set [2] (DVS pattern, Figure 16) came to 0.114%. The “Confirmation of crystal form by XRPD after completion of the experiment” value (“Confirmation of crystal form by XRPD” for short) in data set [3] (High humidity condition (25°C/92.5%RH), 30 days) is “Crystal form A”. In data set [3] (High temperature (60°C), 30 days), the “Confirmation of crystal form by XRPD” value is reported as “Crystal form A”. The “Confirmation of crystal form by XRPD” value in data set [3] (Illumination (5000 ± 500 lux (visible light) and 90 µw/cm^2 (ultraviolet)), 10 days) is on record as “Crystal form A”.
